Experimental findings from patent US20240400579A1, “SPIROCYCLIC MODULATORS OF CHOLESTEROL BIOSYNTHESIS AND THEIR USE FOR PROMOTING REMYELINATION” (GENENTECH, INC., priority 2021, published 2024) are described below.

The test system of one experiment is EpiSC-derived OPCs. Kind of experiment: In vitro phenotypic screening of OPCs, MBP high-content imaging. It is filed as cell-based, mouse. The note with it: Mus musculus, 72 h, percentage of MBP+ oligodendrocytes; 3 days; 0.5 nM to 1000 nM; read-out: mOPC EC50. The procedure, abridged: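 Mouse EpiSC-derived OPCs seeded without growth factors and exposed 3 days at 37° C. to 8-point doses, 1000 nM to 0.5 nM final. Fixed cells stained for MBP and DAPI; high-content imaging gave percentage MBP+ oligodendrocytes, with EC50 from Hill-equation fit.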

The target in another experiment is human EBP (Homo sapiens (Human), UniProt Q15125). Kind of experiment: Competition binding assay (SPA) to determine compound affinity to EBP. The note with it: radioligand [3H]-Ifenprodil 10 nM; Ki=IC50/(1+[L]/Kd); HEK293 membrane; read-out: hEBP SPA Ki.
human EBP, sequence (Q15125 whole entry): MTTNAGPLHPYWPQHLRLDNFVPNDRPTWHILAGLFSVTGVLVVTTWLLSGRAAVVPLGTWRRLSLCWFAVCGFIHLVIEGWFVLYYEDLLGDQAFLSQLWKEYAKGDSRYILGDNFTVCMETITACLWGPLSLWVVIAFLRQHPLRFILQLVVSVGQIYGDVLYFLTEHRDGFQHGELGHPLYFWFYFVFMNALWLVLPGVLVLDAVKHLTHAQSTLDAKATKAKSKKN
Experiment [1] has as its system zymostenol accumulation in EpiSC-derived OPCs (EBP). Kind of experiment: GC/MS-based sterol profiling, zymostenol accumulation. The following applies: Mus musculus, 24 h, 8 doses from 0.15 nM to 333 nM, read-out: mZymo GCMS EC50. It is filed as cell-based, mouse. The procedure, abridged:
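EpiSC-derived mouse OPCs plated at 100,000 cells/well in N2B27 without growth factors and treated 24 h. Sterols extracted, silylated with BSTFA and measured by GC/MS (EI, full scan), quantified against cholesterol-d7. Zymostenol normalized to levels after 24 h with 100 nM positive control reference.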

Molecules are shown by their SMILES. pEC50, pKi: −log10 of the molar value.

As usually defined, the pEC50 is −log10 of the EC50, conventionally taken in molar units. In general, pKi refers to the negative decadic logarithm of the Ki, by convention in mol/L. Turning to `CC(C)(Cc1ccc(C(F)(F)F)nc1)CN1CCC2(C1)CS(=O)(=O)C2` [Example 140, 6-(2,2-Dimethyl-3-(6-(trifluoromethyl)pyridin-3-yl)propyl)-2-thia-6-azaspiro[3.4]octane-2,2-dioxide], the pEC50 in the experiment on EpiSC-derived OPCs was 8.30; in experiment [1], 8.68. In addition, the pKi on human EBP was 7.74.
The corresponding values for `CC(C)(CN1CCC2(C1)CS(=O)(=O)C2)Oc1cnc(C(F)(F)F)nc1` [Example 144, 6-(2-Methyl-2-((2-(trifluoromethyl)pyrimidin-5-yl)oxy)propyl)-2-thia-6-azaspiro[3.4]octane-2,2-dioxide] are 6.41, 7.10 and 7.28.
For the compound `O=S1(=O)CC2(CCN(CC3(Cc4ccc(C(F)(F)F)nc4)CC3)C2)C1` [Example 157, 6-((1-((6-(Trifluoromethyl)pyridin-3-yl)methyl)cyclopropyl)methyl)-2-thia-6-azaspiro[3.4]octane 2,2-dioxide], the pEC50 in the experiment with EpiSC-derived OPCs was 8.03; in experiment [1], 7.92. The pKi on human EBP was 7.60.
As for `O=S1(=O)CCC2(CC1)CN(CCOc1ccc(C(F)(F)F)cc1)C2` [Example 201, 2-(2-(4-(Trifluoromethyl)phenoxy)ethyl)-7-thia-2-azaspiro[3.5]nonane 7,7-dioxide], the figures for the negative logarithm of the EC50 (pEC50) (in the experiment with EpiSC-derived OPCs; in experiment [1]) were 8.26 and 8.49, respectively. The pKi on human EBP is 7.89.
